# Data published in patent US20220016135A1, “TREATING BREAST CANCER WITH HORMONE RECEPTOR MODULATORS” (UNIVERSITY OF MIAMI, priority 2020, published 2022).
# What was measured:
# Assay type in all cases: cell-based, human
# BT20 = experiment: cell proliferation assay (cell titer blue), BT20; details: BT20 (HR1, VDR+), Calcitrol 25 nM alone; FIG. 24A-24C
# MDA-MB-468 = experiment: cell proliferation assay (cell titer blue), MDA-MB-468; details: MDA-MB-468 (HR1, VDR+), Calcitrol 25 nM alone; FIG. 24A-24C
# SUM159 = experiment: cell proliferation assay (cell titer blue), SUM159; details: SUM159 (HR1, VDR+), Calcitrol 25 nM alone; FIG. 24A-24C
# MDA-MB-453 = experiment: cell proliferation assay, MDA-MB-453; details: ER-negative control cell line MDA-MB-453, ICI 182,780 100 nM; FIG. 24H
SMILES,proliferation (BT20),proliferation (MDA-MB-468),proliferation (SUM159),inhibition of cell proliferation (MDA-MB-453)
"C=C1/C(=C\C=C2/CCC[C@]3(C)[C@@H]([C@H](C)CCCC(C)(C)O)CC[C@@H]23)C[C@@H](O)C[C@@H]1O [Calcitrol, Calcitriol]",reduction in proliferation,reduction in proliferation,reduction in proliferation,
"C[C@]12CC[C@@H]3c4ccc(O)cc4C[C@@H](CCCCCCCCC[S+]([O-])CCCC(F)(F)C(F)(F)F)[C@H]3[C@@H]1CC[C@@H]2O (stereo partly shown) [ICI 182,780]",,,,no inhibition of cell proliferation
